{"source": "patent US20220023221A1", "about": "“Oral Unit Dosage Form Of Ivermectin” (CHEMO RESEARCH, S.L., priority 2020, published 2022)", "key": {"[1]": {"settings": "oral administration of the ivermectin tablets, 600 μg/kg once daily; patient with 100% viral load reduction"}, "[2]": {"tested_on": "SARS-CoV-2", "assay": "viral load by real-time (RT) PCR in the nasal mucosa of SARS-CoV-2 positive patients", "format": "in vivo", "text": "The term “viral load” is well known to a person skilled in the art. The term “viral load” is a measure of the severity of an active viral infection, and can be determined by methods known to the person skilled in the art. As an Example, the viral load can be calculated by estimating the live amount of virus in an involved body fluid such as a number of RNA copies per milliliter of blood plasma. For example, the viral load can be determined by a real-time (RT) PCR test.\nIvermectin tablets as produced in Example 1 were administered for seven days in a daily dose of 600 μg/kg once daily to 9 patients (IVM) which have been tested to be positive for SARS-CoV-2, whereas 7 patients (control) which have been tested to be positive for SARS-CoV-2, received placebo tablets during said 7 days period.\nThe viral load was measured by a real-time (RT) PCR test on treatment days 1, 3, 5 and 7 in the nasal mucosa."}, "[3]": {"settings": "increasing doses from 150 μg/kg/day to 1600 μg/kg/day, onchoceriasis patients; cited from earlier work"}, "[4]": {"tested_on": "SARS-CoV-2 virus", "settings": "cited from earlier work"}, "[5]": {"settings": "oral administration of the approved dose of 200 μg/kg; read-out: maximum plasma concentration (Cmax); cited from earlier work"}}}
{"substance": "ivermectin", "values": [{"measurement": "ivermectin (IVM) concentration in the blood, single patient", "setting": "[1]", "value": 183, "unit": "ng/mL"}, {"measurement": "reduction in viral load", "setting": "[2]; Day 7, 600 μg/kg once daily for seven days, 9 patients, nasal mucosa", "value": "more than 50%"}, {"measurement": "reduction of the viral load compared with control", "setting": "[2]; each timepoint (days 1, 3, 5, 7), 600 μg/kg once daily, nasal mucosa", "value": "greater reduction of the viral load at each timepoint"}, {"measurement": "Decay rate of viral load, single patient", "setting": "[2]; the patient with 183 ng/ml IVM concentration", "value": 0.54, "unit": "day⁻¹"}, {"measurement": "viral load reduction in the nasal mucosa, single patient", "setting": "[2]; the patient with 183 ng/ml ivermectin concentration in the blood", "value": 100, "unit": "%"}, {"measurement": "tolerability", "setting": "[3]", "value": "well tolerated"}, {"measurement": "IC50", "setting": "[4]; SARS-CoV-2 replication in vitro, read-out: concentration resulting in 50% inhibition (IC50)", "value": 2, "unit": "µM"}, {"measurement": "inhibition of replication of SARS-CoV-2 virus in vitro", "setting": "[4]; ivermectin at 5 μM", "value": "inhibit the replication of SARS-CoV-2 virus in vitro"}, {"measurement": "Cmax", "setting": "[5]", "value": 50, "unit": "nM"}]}
